For the assay, the target named is T1, human MDM2 (GST-hMDM2 1-188), interaction with biotinylated-p53 (1-83) (Homo sapiens, UniProt Q00987).
T1 construct: Amino acid residues 1-188 of human MDM2 were expressed; made in house; host or cells: Escherichia coli
T1 sequence (Q00987 1-188): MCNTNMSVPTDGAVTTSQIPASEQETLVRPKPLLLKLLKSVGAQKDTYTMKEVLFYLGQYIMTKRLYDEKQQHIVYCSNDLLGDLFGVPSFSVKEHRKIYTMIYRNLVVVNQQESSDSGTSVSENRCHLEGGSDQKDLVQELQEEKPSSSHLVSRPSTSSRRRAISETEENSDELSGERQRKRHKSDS
Description: improved HTRF assay (HTRF2 assay), inhibition of HDM2-p53 interaction. The assay is classed as binding. The conditions noted are these: 0.2 nM GST-hMDM2, 0.5 nM biotinylated-p53, 100 mM KF. The procedure, abridged: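 GST-hMDM2 preincubated 20 min at RT with serially diluted compound, then biotinylated p53 (1-83, E. coli) added for 60 min. Detection with SA-XLent, anti-GST cryptate and KF, equilibrated >4 h; final DMSO 2%. TR-FRET read; % inhibition calculated relative to nutlin-3.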
In general terms: Time-resolved FRET reads energy transfer from a long-lived donor to a nearby acceptor.
`CC(C)(C#N)S(=O)(=O)C[C@H](C1CC1)N1C(=O)[C@@H](CC(=O)O)O[C@H](c2cccc(Cl)c2)[C@H]1c1ccc(Cl)cc1` (single isomer, unassigned) [Example 290, 2-((2R,5R,6R)-6-(3-Chlorophenyl)-5-(4-chlorophenyl)-4-((S)-2-((2-cyanopropan-2-yl)sulfonyl)-1-cyclopropylethyl)-3-oxomorpholin-2-yl)acetic acid or 2-((2S,5R,6R)-6-(3-chlorophenyl)-5-(4-chlorophenyl)-4-((S)-2-((2-cyanopropan-2-yl)sulfonyl)-1-cyclopropylethyl)-3-oxomorpholin-2-yl)acetic acid] came in with a half-maximal inhibitory concentration (IC50) of under 1 nM.

Regarding `CC(C)(C#N)S(=O)(=O)C[C@H](C1CC1)N1C(=O)[C@@H](CC(=O)O)O[C@H](c2cccc(Cl)c2)[C@H]1c1ccc(Cl)cc1` (single isomer, unassigned) [Example 291, 2-((2R,5R,6R)-6-(3-Chlorophenyl)-5-(4-chlorophenyl)-4-((S)-2-((2-cyanopropan-2-yl)sulfonyl)-1-cyclopropylethyl)-3-oxomorpholin-2-yl)acetic acid or 2-((2S,5R,6R)-6-(3-chlorophenyl)-5-(4-chlorophenyl)-4-((S)-2-((2-cyanopropan-2-yl)sulfonyl)-1-cyclopropylethyl)-3-oxomorpholin-2-yl)acetic acid], the IC50 was under 1 nM.

Regarding `CC(C)(C)NS(=O)(=O)C[C@H](C1CC1)N1C(=O)[C@@H](CC(=O)O)O[C@H](c2cccc(Cl)c2)[C@H]1c1ccc(Cl)cc1` (single isomer, unassigned) [Example 292, 2-((2R,5R,6R)-4-((S)-2-(N-(tert-Butyl)sulfamoyl)-1-cyclopropylethyl)-6-(3-chlorophenyl)-5-(4-chlorophenyl)-3-oxomorpholin-2-yl)acetic acid or 2-((2S,5R,6R)-4-((S)-2-(N-(tert-butyl)sulfamoyl)-1-cyclopropylethyl)-6-(3-chlorophenyl)-5-(4-chlorophenyl)-3-oxomorpholin-2-yl)acetic acid], the IC50 is under 1 nM.

`CC(C)(C)NS(=O)(=O)C[C@H](C1CC1)N1C(=O)[C@@H](CC(=O)O)O[C@H](c2cccc(Cl)c2)[C@H]1c1ccc(Cl)cc1` (single isomer, unassigned) [Example 293, 2-((2R,5R,6R)-4-((S)-2-(N-(tert-Butyl)sulfamoyl)-1-cyclopropylethyl)-6-(3-chlorophenyl)-5-(4-chlorophenyl)-3-oxomorpholin-2-yl)acetic acid or 2-((2S,5R,6R)-4-((S)-2-(N-(tert-butyl)sulfamoyl)-1-cyclopropylethyl)-6-(3-chlorophenyl)-5-(4-chlorophenyl)-3-oxomorpholin-2-yl)acetic acid] had an IC50 of 1 nM.

As for `O=C(O)C[C@H]1O[C@H](c2cccc(Cl)c2)[C@@H](c2ccc(Cl)cc2)N([C@H](CS(=O)(=O)Nc2ccccc2F)C2CC2)C1=O` (single isomer, unassigned) [Example 294, 2-((2R,5R,6R)-6-(3-Chlorophenyl)-5-(4-chlorophenyl)-4-((S)-1-cyclopropyl-2-(N-(2-fluorophenyl)sulfamoyl)ethyl)-3-oxomorpholin-2-yl)acetic acid or 2-((2S,5R,6R)-6-(3-chlorophenyl)-5-(4-chlorophenyl)-4-((S)-1-cyclopropyl-2-(N-(2-fluorophenyl)sulfamoyl)ethyl)-3-oxomorpholin-2-yl)acetic acid], the IC50 is under 1 nM.

`O=C(O)C[C@H]1O[C@H](c2cccc(Cl)c2)[C@@H](c2ccc(Cl)cc2)N([C@H](CS(=O)(=O)Nc2ccccc2F)C2CC2)C1=O` (single isomer, unassigned) [Example 295, 2-((2R,5R,6R)-6-(3-Chlorophenyl)-5-(4-chlorophenyl)-4-((S)-1-cyclopropyl-2-(N-(2-fluorophenyl)sulfamoyl)ethyl)-3-oxomorpholin-2-yl)acetic acid or 2-((2S,5R,6R)-6-(3-chlorophenyl)-5-(4-chlorophenyl)-4-((S)-1-cyclopropyl-2-(N-(2-fluorophenyl)sulfamoyl)ethyl)-3-oxomorpholin-2-yl)acetic acid] returned an IC50 of 2 nM.

The compound `C[C@H]1CCCN1S(=O)(=O)C[C@H](C1CC1)N1C(=O)[C@@H](CC(=O)O)O[C@H](c2cccc(Cl)c2)[C@H]1c1ccc(Cl)cc1` (single isomer, unassigned) [Example 296, 2-((2R,5R,6R)-6-(3-Chlorophenyl)-5-(4-chlorophenyl)-4-((S)-1-cyclopropyl-2-(((S)-2-methylpyrrolidin-1-yl)sulfonyl)ethyl)-3-oxomorpholin-2-yl)acetic acid or 2-((2S,5R,6R)-6-(3-chlorophenyl)-5-(4-chlorophenyl)-4-((S)-1-cyclopropyl-2-(((S)-2-methylpyrrolidin-1-yl)sulfonyl)ethyl)-3-oxomorpholin-2-yl)acetic acid] returned a concentration for half-maximal inhibition (IC50) of under 1 nM.

Consider `C[C@H]1CCCN1S(=O)(=O)C[C@H](C1CC1)N1C(=O)[C@@H](CC(=O)O)O[C@H](c2cccc(Cl)c2)[C@H]1c1ccc(Cl)cc1` (single isomer, unassigned) [Example 297, 2-((2R,5R,6R)-6-(3-Chlorophenyl)-5-(4-chlorophenyl)-4-((S)-1-cyclopropyl-2-(((S)-2-methylpyrrolidin-1-yl)sulfonyl)ethyl)-3-oxomorpholin-2-yl)acetic acid or 2-((2S,5R,6R)-6-(3-chlorophenyl)-5-(4-chlorophenyl)-4-((S)-1-cyclopropyl-2-(((S)-2-methylpyrrolidin-1-yl)sulfonyl)ethyl)-3-oxomorpholin-2-yl)acetic acid], for which the IC50 was under 1 nM.

In turn, `O=C(O)C[C@H]1O[C@H](c2cccc(Cl)c2)[C@@H](c2ccc(Cl)cc2)N([C@H](CS(=O)(=O)N2CCc3cc(F)ccc32)C2CC2)C1=O` (single isomer, unassigned) [Example 298, 2-((2R,5R,6R)-6-(3-Chlorophenyl)-5-(4-chlorophenyl)-4-((S)-1-cyclopropyl-2-((5-fluoroindolin-1-yl)sulfonyl)ethyl)-3-oxomorpholin-2-yl)acetic acid or 2-((2S,5R,6R)-6-(3-chlorophenyl)-5-(4-chlorophenyl)-4-((S)-1-cyclopropyl-2-((5-fluoroindolin-1-yl)sulfonyl)ethyl)-3-oxomorpholin-2-yl)acetic acid] showed an IC50 of 26 nM.

`O=C(O)C[C@H]1O[C@H](c2cccc(Cl)c2)[C@@H](c2ccc(Cl)cc2)N([C@H](CS(=O)(=O)N2CCc3cc(F)ccc32)C2CC2)C1=O` (single isomer, unassigned) [Example 299, 2-((2R,5R,6R)-6-(3-Chlorophenyl)-5-(4-chlorophenyl)-4-((S)-1-cyclopropyl-2-((5-fluoroindolin-1-yl)sulfonyl)ethyl)-3-oxomorpholin-2-yl)acetic acid or 2-((2S,5R,6R)-6-(3-chlorophenyl)-5-(4-chlorophenyl)-4-((S)-1-cyclopropyl-2-((5-fluoroindolin-1-yl)sulfonyl)ethyl)-3-oxomorpholin-2-yl)acetic acid] had an IC50 of 11 nM.

The compound `CN(C(C)(C)C)S(=O)(=O)C[C@H](C1CC1)N1C(=O)[C@@H](CC(=O)O)O[C@H](c2cccc(Cl)c2)[C@H]1c1ccc(Cl)cc1` (single isomer, unassigned) [Example 300, 2-((2R,5R,6R)-4-((S)-2-(N-(tert-Butyl)-N-methylsulfamoyl)-1-cyclopropylethyl)-6-(3-chlorophenyl)-5-(4-chlorophenyl)-3-oxomorpholin-2-yl)acetic acid or 2-((2S,5R,6R)-4-((S)-2-(N-(tert-butyl)-N-methylsulfamoyl)-1-cyclopropylethyl)-6-(3-chlorophenyl)-5-(4-chlorophenyl)-3-oxomorpholin-2-yl)acetic acid] yielded an IC50 of under 1 nM.

Take `CN(C(C)(C)C)S(=O)(=O)C[C@H](C1CC1)N1C(=O)[C@@H](CC(=O)O)O[C@H](c2cccc(Cl)c2)[C@H]1c1ccc(Cl)cc1` (single isomer, unassigned) [Example 301, 2-((2R,5R,6R)-4-((S)-2-(N-(tert-Butyl)-N-methylsulfamoyl)-1-cyclopropylethyl)-6-(3-chlorophenyl)-5-(4-chlorophenyl)-3-oxomorpholin-2-yl)acetic acid or 2-((2S,5R,6R)-4-((S)-2-(N-(tert-butyl)-N-methylsulfamoyl)-1-cyclopropylethyl)-6-(3-chlorophenyl)-5-(4-chlorophenyl)-3-oxomorpholin-2-yl)acetic acid]: the IC50 was under 1 nM.

`O=C(O)C[C@H]1O[C@H](c2cccc(Cl)c2)[C@@H](c2ccc(Cl)cc2)N([C@H](CS(=O)(=O)N2CCOCC2)C2CC2)C1=O` (single isomer, unassigned) [Example 302, 2-((2R,5R,6R)-6-(3-Chlorophenyl)-5-(4-chlorophenyl)-4-((S)-1-cyclopropyl-2-(morpholinosulfonyl)ethyl)-3-oxomorpholin-2-yl)acetic acid or 2-((2S,5R,6R)-6-(3-chlorophenyl)-5-(4-chlorophenyl)-4-((S)-1-cyclopropyl-2-(morpholinosulfonyl)ethyl)-3-oxomorpholin-2-yl)acetic acid] displayed a 50% inhibitory concentration (IC50) of under 1 nM.

Compound `O=C(O)C[C@H]1O[C@H](c2cccc(Cl)c2)[C@@H](c2ccc(Cl)cc2)N([C@H](CS(=O)(=O)N2CCOCC2)C2CC2)C1=O` (single isomer, unassigned) [Example 303, 2-((2R,5R,6R)-6-(3-Chlorophenyl)-5-(4-chlorophenyl)-4-((S)-1-cyclopropyl-2-(morpholinosulfonyl)ethyl)-3-oxomorpholin-2-yl)acetic acid or 2-((2S,5R,6R)-6-(3-chlorophenyl)-5-(4-chlorophenyl)-4-((S)-1-cyclopropyl-2-(morpholinosulfonyl)ethyl)-3-oxomorpholin-2-yl)acetic acid] came in with an IC50 of 1 nM.

In general, IC50 refers to the concentration that gives 50% inhibition.
